In patent US5082771A, “Detecting cells using tellurapyrylium dihydroxides” (Eastman Kodak Company, priority 1989, dated 1992):

Experiments:
[1] = Maximum absorption and extinction coefficient of the Te(IV) dihydroxides in water; assay type: physicochemical; conditions: for extinction coefficient (ε): at λmax
Excerpt: The maximum absorption and extinction coefficient for the compounds in water is listed below: […]

[2] = system: E. Coli; experiment: Reduction of Te/Te Dye by suspension of E. Coli cells, change in optical density as a function of time (Example 2); assay type: cell-based; conditions: 1 × 10^-4 M, pH about 7.8
Excerpt: The final concentration of the TPDN was about 1×10^-4 molar after dilution.
The stock solutions of the TPDH can be prepared in a concentration within the range of from about 5×10^-2 and about 5×10^-4 molar.

[3] = system: E. Coli; experiment: Absorption spectra over time of a system comprising E. Coli and a tellurium (IV) dihydroxide (FIG. 1); assay type: cell-based; conditions: for absorption maximum: FIG. 1, system comprising E. Coli
Excerpt: FIG. 1 comprises a series of plots showing the change, over time, of the absorption spectrum of a system comprising E. Coli. and a tellurium (IV) dihydroxide. More specifically, the series of plots follows the reduction: [drawing 1] as a function of time.
Over time, as the E. Coli reduces the tellurium (IV) dihydroxide. i.e., the TPDH. the absorption at 510 nm diminishes until it becomes non existent. As the absorption diminishes at 510 nm, a much more intense absorption peak at about 820 nm arises. In other words, the extinction coefficient for the absorption maximum of the TPDH is mu:h less than the extinction coefficient for the absorption maximum for the reduction product. Stated another way, the extinction coefficient for the absorption peak of the reduction product is much greater than the extinction coefficient for the absorption peak of the TPDH.
The time interval between each spectophometric tracing in FIG. 1 is about 30 seconds.

[4] = Stability (half life) at 37° C. at various pH values; assay type: physicochemical
Excerpt: The stability of the dihydroxycompounds used in this invention is generally very good.

For CC(C)(C)C1=CC(=CC=Cc2cc(C(C)(C)C)[s+]c(C(C)(C)C)c2)C=C(C(C)(C)C)[Te]1(O)O [Te/S Dye], the “maximum absorption (λmax)” value [1] was 480 nm and the “extinction coefficient (ε)” value [1] was 52,000.
With CC(C)(C)C1=CC(=CC=Cc2cc(C(C)(C)C)[se+]c(C(C)(C)C)c2)C=C(C(C)(C)C)[Te]1(O)O [Te/Se Dye] the “maximum absorption (λmax)” value [1] was 502 nm and the “extinction coefficient (ε)” value [1] was 55,000.
For CC(C)(C)C1=CC(=CC=Cc2cc(C(C)(C)C)[te+]c(C(C)(C)C)c2)C=C(C(C)(C)C)[Te]1(O)O [Te/Te Dye, 4[3[2,6-bis(1,1-dimethylethyl)-tellurinium-4-yl]-2-propenylidene]-1,1-dihydroxy-2,6-bis(1,1-dimethylethyl)-1,1-dihydro-4H-tellurin chloride], the “Optical Density (O.D.) @ 820 nm” value ([2]; 10^5 Cells/mL, 0.0 s) was 0.05, the “Optical Density (O.D.) @ 820 nm” value ([2]; 10^5 Cells/mL, 60 s) was 0.15 and the “Optical Density (O.D.) @ 820 nm” value ([2]; 10^5 Cells/mL, 120 s) was 0.90. The “Optical Density (O.D.) @ 820 nm” value ([2]; 10^5 Cells/mL, 180 s) was 0.65, the “Optical Density (O.D.) @ 820 nm” value ([2]; 10^5 Cells/mL, 240 s) was 0.89 and the “Optical Density (O.D.) @ 820 nm” value ([2]; 10^5 Cells/mL, 300 s) was 0.98. For the same molecule, the “Optical Density (O.D.) @ 820 nm” value ([2]; 10^5 Cells/mL, 360 s) was 1.13, the “Optical Density (O.D.) @ 820 nm” value ([2]; 10^5 Cells/mL, 420 s) was 1.18 and the “Optical Density (O.D.) @ 820 nm” value ([2]; 10^5 Cells/mL, 480 s) was 1.23. The “Optical Density (O.D.) @ 820 nm” value ([2]; 10^5 Cells/mL, 540 s) was 1.24, the “Optical Density (O.D.) @ 820 nm” value ([2]; 10^6 Cells/mL, 0.0 s) was 0.05 and the “Optical Density (O.D.) @ 820 nm” value ([2]; 10^6 Cells/mL, 30 s) was 0.10. For the same molecule, the “Optical Density (O.D.) @ 820 nm” value ([2]; 10^6 Cells/mL, 60 s) was 0.32, the “Optical Density (O.D.) @ 820 nm” value ([2]; 10^6 Cells/mL, 120 s) was 0.63 and the “Optical Density (O.D.) @ 820 nm” value ([2]; 10^6 Cells/mL, 150 s) was 0.84. The “Optical Density (O.D.) @ 820 nm” value ([2]; 10^6 Cells/mL, 210 s) was 1.15, the “Optical Density (O.D.) @ 820 nm” value ([2]; 10^6 Cells/mL, 270 s) was 1.46 and the “Optical Density (O.D.) @ 820 nm” value ([2]; 10^6 Cells/mL, 300 s) was 1.60. The “Optical Density (O.D.) @ 820 nm” value ([2]; 10^6 Cells/mL, 330 s) was 1.73, the “Optical Density (O.D.) @ 820 nm” value ([2]; 10^6 Cells/mL, 390 s) was 2.00 and the “absorption at about 820 nm” value ([3]; FIG. 1, before reduction) was “practically no absorption”. For the same molecule, the absorption maximum [3] was “about 510 nm”, the “absorption at about 510 nm after reduction by E. Coli” value ([3]; over time, tracings about every 30 seconds) was “non existent” and the “maximum absorption (λmax)” value [1] was 510 nm. For the same molecule, the “extinction coefficient (ε)” value [1] was 56,000.
With CC(C)(C)C1=CC(=CC=Cc2cc(C(C)(C)C)[te+]c(C(C)(C)C)c2)C=C(C(C)(C)C)[Te]1 [compound (b), 4-[3-[2,6-bis(1,1-dimethylethyl-4H-tellurin-4-ylidene]-1-propenyl]-2,6-bis(1,1-dimethylethyl) -tellurinium chloride] the absorption maximum [3] was “about 820 nm”.
Molecule CC(C)(C)C1=CC(=CC=Cc2cc(C(C)(C)C)[te+]c(C(C)(C)C)c2)C=C(C(C)(C)C)[Te]1(O)O [drawing 16] has a half-life ([4]; pH 4.58) of 3.5 h, a half-life ([4]; pH 5.98) of 4.5 h and a half-life ([4]; pH 7.4, pH 7.40) of 12 h. The half-life ([4]; pH 8.5, pH 8.50) was 12 h, the half-life ([4]; pH 9.03) was 8.5 h and the half-life ([4]; pH 10.2, pH 10.20) was 8 h. For the same molecule, the half-life ([4]; pH 11.98) was 6.3 h.
